Read-outs that look alike come from different tables or passages of the source.
Key:
hERG channel [1] = molecular target: T1, hERG channel (Homo sapiens, UniProt Q12809, DEL141-380/DEL871-1005); test: in vitro; details: pH 7.4
hERG = hERG (Homo sapiens, UniProt Q12809); details: cited from earlier work
hERG channel [2] = molecular target: T1, hERG channel; test: biochemical
hERG channel [3] = molecular target: T1, hERG channel; test: liposome flux assay (LFA) with engineered hERG channel protein in proteoliposomes; details: n = 3, mean ± SEM, compared with DMSO controls
hERG channel [4] = molecular target: T1, hERG channel
[5] = read-out: IC50 patch, electrophysiology-determined values reported in the literature

Row | Compound | inhibition at 100 µM (hERG channel [1]) [%] | other results
1 | CC(=O)Nc1ccc(O)cc1 [Acetaminophen] | 11.6 ± 7.5 | –
2 | CC(=O)Nc1nnc(S(N)(=O)=O)s1 [Acetazolamide] | 4.4 ± 1.8 | –
3 | CCN(CC)CCCN(c1ccccc1)C1Cc2ccccc2C1 [Aprindine] | – | IC50 (hERG; [5]): 230 nM; IC50 (hERG channel [2]): 1880 ± 221 nM
4 | NC[C@H](O)c1ccc(O)c(O)c1 [Arterenol] | – | Percentage inhibition (%) at 100 μM (hERG channel [3]): 3.7 ± 4.3%
5 | CN1CCN(CCCCN2C(=O)CN(/N=C/c3ccc(-c4ccc(Cl)cc4)o3)C2=O)CC1 [Azimilide] | – | IC50 (hERG; [5]): 891 nM; IC50 (hERG channel [2]): 4280 ± 1030 nM
6 | CCCCOc1ccc(CC(=O)NO)cc1 [Bufexamac] | 1.7 ± 6.8 | –
7 | C[N+](C)(C)CCOC(N)=O [Carbachol] | 2.2 ± 4.2 | –
8 | CN/C(=N/CCSCc1nc[nH]c1C)NC#N [Cimetidine] | 19.9 ± 3.7 | –
9 | Clc1cccc(Cl)c1N=C1NCCN1 [Clonidine] | 15.2 ± 5.8 | –
10 | C[N+]1([O-])CCN(C2=Nc3cc(Cl)ccc3Nc3ccccc32)CC1 [Clozapine N-oxide] | – | Percentage inhibition (%) at 100 μM (hERG channel [4]; 100 µM): 2.1 ± 3.0%
11 | C=C(CC)C(=O)c1ccc(OCC(=O)O)c(Cl)c1Cl [Ethacrynic acid] | 8.1 ± 4.4 | –
12 | COc1ccccc1OCC(O)CO (centres unmarked) [Guaifenesin] | -3.5 ± 7.4 | –
13 | CC(C)Cc1ccc(C(C)C(=O)O)cc1 (centres unmarked) [Ibuprofen] | 13.1 ± 2.1 | –
14 | CC(C(O)c1ccc(O)cc1)N1CCC(Cc2ccccc2)CC1 (centres unmarked) [Ifenprodil] | – | IC50 (hERG; [5]): 410 nM; IC50 (hERG channel [2]): 1590 ± 71 nM
15 | CC1Cc2ccccc2N1NC(=O)c1ccc(Cl)c(S(N)(=O)=O)c1 (centres unmarked) [Indapamide] | 4.8 ± 6.7 | –
16 | N=C(N)SCCc1ccc(OCc2ccc([N+](=O)[O-])cc2)cc1 [KB-R7943] | – | IC50 (hERG channel [4]): 1780 ± 140 nM; IC50 (hERG; [5]): 89 nM
17 | CN(C)c1ccc(O)c2c1C[C@H]1C[C@H]3[C@H](N(C)C)C(O)=C(C(N)=O)C(=O)[C@@]3(O)C(O)=C1C2=O [Minocycline] | -2.5 ± 11.9 | –
18 | CC1(C)O[C@H]1COc1c2ccoc2cc2oc(=O)ccc12 [Oxypeucedanin] | 4.5 ± 19.3 | –
19 | CC1=C(CC(=O)O)c2cc(F)ccc2/C1=C\c1ccc([S+](C)[O-])cc1 (centres unmarked) [Sulindac] | 1.1 ± 2.8 | –
20 | O=c1n(CCCN2CCN(c3cccc(Cl)c3)CC2)nc2ccccn12 [Trazadone] | – | IC50 (hERG channel [4]): 9250 ± 529 nM; IC50 (hERG): 690 to 2900 nM
21 | COc1cc(Cc2cnc(N)nc2N)cc(OC)c1OC [Trimethoprim] | 20.6 ± 1.9 | –
22 | CC(=O)CC(c1ccccc1)c1c(O)c2ccccc2oc1=O (centres unmarked) [Warfarin] | 9.1 ± 5.5 | –
23 | COC[C@H]1OC(=O)c2coc3c2[C@@]1(C)C1=C(C3=O)[C@@H]2CCC(=O)[C@@]2(C)C[C@H]1OC(C)=O [Wortmannin] | 1.7 ± 5.8 | –
24 | Penicillin | – | Percentage inhibition (%) at 100 μM (hERG channel [3]): −0.4 ± 9.5%

Source: patent US11579152B2, “Engineered hERG channel proteins, vesicles and methods of identifying small molecule pharmacological agents” (priority 2016, dated 2023)
